Columns and labels:
[1] = target: T1, Aβ(1–42) aggregates (Homo sapiens, UniProt P05067); assay: ThT fluorescence Aβ(1–42) disaggregation assay; format: biochemical; conditions: for Decrease of fibrillar Aβ(1–42) aggregates (ThT fluorescence): Aβ(1–42) 25 μM pre-aggregated 37°C 3 days, compound added for additional 3 days, concentration of the printed value not stated; for EC50: pre-aggregated Aβ(1–42) 25 μM, 3 + 3 days, 37°C
T1 construct: made in house; host or cells: chemical synthesis (Fmoc solid phase peptide synthesis)
T1 sequence (P05067 672-713 limits assumed): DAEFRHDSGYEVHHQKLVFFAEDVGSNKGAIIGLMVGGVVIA
Procedure: ThT fluorescence was used to assess the in vitro inhibition of Aβ(1–42) and disaggregation of Aβ(1–42), Aβ(1–40), Aβ(pE3-42), recombinant tau K18, and tau repeats R1, R2, R3, R4 by YIAD compounds. In house synthetic Aβ(1–42) was dissolved in DMSO (1 mM, 100% DMSO) and diluted to 20-fold in deionized water to make 50 μM Aβ(1–42) stocks (5% DMSO). YIAD compounds were first dissolved in DMSO (100 mM, 100% DMSO) and serially diluted with deionized water to make YIAD stocks with concentrations of 1, 10, 100, and 1000 μM (10% DMSO). For the Aβ(1–42) inhibition assay, monomeric Aβ(1–42) stocks and YIAD stocks were co-incubated at 37°C for 3 days. For Aβ(1–42) disaggregation assay, monomeric Aβ(1–42) stocks were preincubated at 37°C for three days to form Aβ(1–42) aggregates, and subsequently, YIAD stocks were added for an additional 3 days. For Aβ(1-40) disaggregation assays, Aβ(1–40) (50 μM, 5% DMSO) was preincubated at 37°C for 3 days to induce aggregation, and co-incubated with YIAD001 and YIAD002 for an additional 3 days. For Aβ(pE3-42) disaggregation assays, in house synthetic Aβ(pE3-42) (50 μM, 5% DMSO) was preincubated at 37°C for 1 day and co-incubated with YIAD002 for an additional 3 days. For tau K18 disaggregation assay, recombinant tau K18 fragments (35 μM) were dissolved in PBS with 0.1 mg/mL of heparin and 100 μM of DTT, then pre-aggregated at 37°C for 3 days. Then, YIAD stocks were added to aggregated K18 fragments for an additional 3 days. For tau repeat disaggregation assays, tau repeats (R1, R2, R3, R4) (35 μM) were dissolved in PBS with 0.1 mg/mL of heparin and 100 μM of DTT, then pre-aggregated at 37°C for 1 day. Then, YIAD002 was added to aggregated repeats for an additional 3 days. Prior to fluorescence intensity measurement, ThT solution (5 μM) was prepared by dissolving ThT, purchased from Sigma-Aldrich (MO, USA) in 50 mM glycine buffer (pH 8.5). To quantify the effect of inhibition and disaggregation, 25 μL of all samples and 75 μL of ThT solution were loaded into a half-area 96-well black plate in triplicate.

[2] = test system: 5XFAD mice; assay: Dot blot assay (6E10, A11) of soluble brain lysates of 5XFAD mice, incl. MWCO filtration; format: in vivo, mouse; conditions: 50 mg/kg/day, 5 weeks; for Total Aβ (6E10) in cortical lysates after GdnHCl denaturation and 100 kDa MWCO filtration: APP removed
Procedure: To test the in vivo efficacy of YIAD001 and YIAD002, female 5XFAD mice (n = 25) and female wildtype mice (n = 7) were assessed at the age of 4.5 months. YIAD compounds were dissolved in DMSO and diluted in drinking water to a final concentration of 50 mg/kg/day (5% DMSO, 5% Tween) for oral administration. The three compounds, YIAD001, YIAD002, and YIAD003, were freely administered via drinking water to 4.5-month-old 5XFAD mice (n = 6 for each group) for 5 weeks. As a control, 5% DMSO, 5% Tween in drinking water was provided ad libitum to littermate 5XFAD mice (n = 7) and wildtype mice (n = 7) for 5 weeks.
After the administration period, the mice were deeply anaesthetized with 4% avertin through intraperitoneal injection and transcardially perfused with 0.9% saline. Subsequently, the mice were sacrificed for brain excision. Each collected brain was divided through the mid-sagittal section; the hippocampal and cortical regions were dissected from one half and stored at −80°C for subsequent brain lysates, while the other half was immersed in 4% paraformaldehyde (pH 7.4) for 24 h and 30% sucrose for 48 h at 4°C and subsequently deep-froze at −80°C for immunohistochemistry.
Isolated cortical and hippocampal tissue samples were homogenized in ice-cold RIPA buffer with protease inhibitor cocktail and phosphatase inhibitor cocktail. Lysed tissues were incubated in ice for 30 min and subsequently centrifuged at 14,000 rpm at 4°C for 30 min. The supernatants of the brain lysates were collected and soluble protein concentrations were quantified with the Pierce BCA protein assay kit (Thermo Fisher Scientific, USA).
(§1) To analyze total and oligomeric amyloid levels, protein samples (12 μg in 2 μL) and prepared in vitro disaggregation assay samples (2 μL) were directly blotted on nitrocellulose membranes. After blocking with 5% skim milk in TBS-T, the membranes were probed with anti-6E10 antibody (1:1,000, Biolegend 803003) and anti-A11 antibody (1:2000, Invitrogen AHB0052) at 4°C overnight. HRP-conjugated goat anti-mouse antibody (1:10,000, Bethyl Laboratories A90-116P) and anti-rabbit secondary antibody (1:10,000, Bethyl Laboratories A120-101P) were used for 6E10 and A11, respectively. Proteins were detected using an ECL kit (Thermo Fisher Scientific, USA). Membranes were washed with TBS-T in between steps, three times for 10 min.
To exclusively investigate soluble Aβ levels in cortical lysates, guanidinium hydrochloride (GdnHCl) in a lysis buffer (5.0 M GdnHCl, 50 mM Tris-HCl, pH 8.0) was utilized to solubilize and denature endogenous Aβ aggregates prior to filtration. The homogenates were incubated with agitation for 3 h at RT. The incubated samples were then quantified to prepare protein samples (10 μg in 4 μL) and were filtered through a 100 kDa molecular weight cut-off (MWCO) filter, centrifuged at 14,000 rpm at RT for 30 min, to remove APP. For subsequent dot blot assay, total […] of the filtrate was spotted onto a nitrocellulose membrane and probed with anti-6E10 antibody (1:1000, Biolegend 803003).

[3] = target: T1, Aβ(1–42) aggregates; assay: SDS-PAGE with PICUP and silver staining; format: biochemical; conditions: 500 μM compound, aggregated Aβ(1–42)
Procedure: SDS-PAGE with photo-induced cross-linking of unmodified proteins (PICUP) and silver staining was used to evaluate the disaggregating effects of YIAD001 and YIAD002 by visualizing the size distributions and band intensity of Aβ(1–42). Samples were prepared under the same conditions as the Aβ(1–42) disaggregation ThT fluorescence assay. Amyloid proteins in the samples from the aforementioned disaggregation assay were subjected to cross-linking, initiated by irradiation (three exposures, each for 1 second) in the presence of tris(2,2′-bipyridyl)dichlororuthenium(II) hexahydrate (Ru(Bpy)) (1 mM) and 1 μL of ammonium persulfate (20 mM). Reactions were immediately quenched with β-mercaptoethanol and boiled for 5 min at 95°C. After cross-linking the samples, we separated amyloid species by SDS-PAGE on a 15% tris-tricine gel and performed silver staining according to the PlusOne Silver Staining kit protocol (GE Healthcare, USA).

[4] = target: T1, Aβ(1–42) aggregates; assay: In vitro dot blot assay with oligomer-specific antibody A11; format: biochemical; conditions: Aβ(1–42) disaggregation samples, Fig. S1
Procedure: as §1

Structure (SMILES) | Decrease of fibrillar Aβ(1–42) aggregates (ThT fluorescence) [1] [%] | EC50 [1] [µM] | Total Aβ (6E10) in cortical lysates after GdnHCl denaturation and 100 kDa MWCO filtration [2] | 6E10-detected total Aβ, cortical lysates ([2]; soluble fraction) | 6E10-detected total Aβ, hippocampus ([2]; soluble fraction) | A11-detected oligomer levels, cortical lysates ([2]; soluble fraction) | Oligomeric Aβ content (A11), hippocampus ([2]; soluble fraction) | Size distribution of Aβ(1–42) bands (fibrils, monomers) [3] | A11-detected amyloid oligomers, in vitro disaggregation [4]
CCC(C)(C)c1ccc(OCC(O)CN2CCCC2)c(C(C)(C)CC)c1.Cl (centres unmarked) [YIAD002, 1-(3-(2,4-Di-tert-pentylphenoxy)-2-hydroxypropyl)pyrrolidin-1-ium chloride] | 99.94 | 16.9 | reduction of Aβ | significantly reduced | not significantly changed | trend of reduction | significantly reduced | reduced fibrils and increased monomers | dissociate Aβ(1–42) aggregates
CCC(C)(C)c1ccc(OCC(O)CN2CCOCC2)c(C(C)(C)CC)c1.Cl (centres unmarked) [YIAD001, 4-(3-(2,4-Di-tert-pentylphenoxy)-2-hydroxypropyl)morpholin-4-ium chloride] | 82.61 | 91.8 | reduction of Aβ | significantly reduced | not significantly changed | trend of reduction |  | reduced fibrils and increased monomers | dissociate Aβ(1–42) aggregates

— paper PMC9706920, “Aryloxypropanolamine targets amyloid aggregates and reverses Alzheimer-like phenotypes in Alzheimer mouse models” (Alzheimer's Research & Therapy, 2022)
